Data reported in patent publication US6461997B1, “Triazole sulfones having herbicidal activity” (Monsanto Technology LLC, priority 1999, dated 2002).

Tests used:
SETVI (green foxtail) = experiment: Pre-plant incorporated (PPI) herbicidal activity, cool season; assay type: in vivo, Setaria viridis; details: for inhibition at 30 g/ha / inhibition at 100 g/ha / inhibition at 300 g/ha / inhibition at 900 g/ha / inhibition at 10 g/ha: Setaria viridis, read-out: Percent inhibition SETVI; for inhibition at 30 g/ha / inhibition at 100 g/ha / inhibition at 300 g/ha / inhibition at 900 g/ha / Percent inhibition SETVI / inhibition at 10 g/ha: weed, PPI application; for PPI activity GR80, SETVI: pre-plant incorporated, lowest tested rate with 80% or greater inhibition, about 14 days
Procedure: (§1) In another set of tests, the pre-plant incorporated (PPI) activity of compounds of this invention was evaluated on the same species as for the pre-emergence tests described above. In the PPI tests the following procedure, designed to simulate PPI application, was used.
(§2) A pre-prepared topsoil mixture (described above) was placed in a pot and compacted to a depth of 1.0 to 1.25 cm from the top of the pot. Seeds of each of several monocotyledonous and dicotyledonous annual plant species were placed on top of the soil. A sufficient quantity of soil to cover the seeds and level fill the pot was weighed into an open container. A known amount of the test compound was dissolved or suspended in an organic solvent and applied by spraying to this cover soil. The cover soil was thoroughly mixed to distribute the test compound throughout the cover soil, and was then applied as a cover layer over the seeds. Untreated soil was used as a cover layer for control pots. After treatment the plants were placed in a greenhouse where they received 0.64 cm of overhead irrigation. All subsequent watering consisted of a light overhead mist and/or subirrigation as needed for germination and growth. Tables 9 and 10 below relate to warm season plant species which were placed after pre-emergence treatment in a greenhouse with a 30/21° C. day/night temperature regime. Tables 11 and 12 below relates to cool season plant species placed after pre-emergence treatment in a greenhouse or growth chamber with an 18/13° C. day/night temperature regime. Only the compounds of Examples 1, 6, 8, 11, 13 and 15-20 were included in PPI tests.
(§3) Approximately 14 days after planting and treating, the plants were observed and herbicidal efficacy recorded as percent inhibition by comparison with untreated plants.

[1] = system: SORHA (johnsongrass (seedling)); experiment: Pre-emergence herbicidal activity, warm season; assay type: in vivo, Sorghum halepense; details: for Pre-emergence activity (GR80) SORHA: GR80 = lowest tested rate (300, 100, 30, 10 g/ha) with 80% or greater inhibition, approx. 14 days after treating, 30/21° C.
How it was run: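 Seeds sown in sterilised fertilised topsoil received surface-applied compound in 50:50 acetone/water, typically at 300, 100, 30 and 10 g/ha, then greenhouse-grown at 30/21° C (warm-season species) or 18/13° C (cool-season species). Percent inhibition versus untreated plants was scored at about 14 days, giving GR80; an asterisk marks activity short of 80% at the top rate.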

ALOMY (blackgrass) = experiment: Post-emergence herbicidal activity, cool season; assay type: in vivo, Alopecurus myosuroides; details: abraded plants sprayed at 300, 100, 30 and 10 g/ha; about 14 days after treatment
How it was run: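 Seedlings grown from seed in topsoil pots were treated 9 to 14 days after planting, foliage first abraded with garnet particles, then sprayed with test compound in 50:50 acetone/water at 300, 100, 30 and 10 g/ha (3,100 l/ha). Kept at 18/13° C. day/night, percent inhibition versus abraded unsprayed controls was scored about 14 days later and GR80 assigned.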

DIGSA (large crabgrass) = experiment: Pre-emergence herbicidal activity, warm season; assay type: in vivo, Digitaria sanguinalis; details: for Pre-emergence activity (GR80) DIGSA: GR80 = lowest tested rate (300, 100, 30, 10 g/ha) with 80% or greater inhibition, approx. 14 days after treating, 30/21° C.
How it was run: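 Seeds were sown in sterilized, fertilized topsoil, covered, and the soil surface was sprayed with compound in 50:50 acetone/water at 300, 100, 30 and 10 g/ha. Pots were held at 30/21 °C day/night (PANMI, DIGSA) or 18/13 °C (ALOMY, POLCO). GR80 came from percent inhibition versus untreated plants at about 14 days.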

rice (ORYSA) = experiment: Selectivity test, PPI, warm season crop; assay type: in vivo, Oryza sativa; details: PPI application; for inhibition at 10 g/ha / inhibition at 30 g/ha / inhibition at 100 g/ha / inhibition at 300 g/ha / inhibition at 900 g/ha: Oryza sativa, read-out: Percent inhibition ORYSA
Procedure: as §2, §3
Additional pre-emergence and PPI tests were conducted by the procedures described above, on warm and cool season weed species in the presence of crop species, to assess herbicidal selectivity. Crop species included in warm season tests were corn (Zea mays, ZEAMX), rice (Oryza sativa, ORYSA) and soybean (Glycine max, GLYMX). Crop species included in cool season tests were wheat (Triticum aestivum, TRZAW), barley (Hordeunm vulgare, HORVX) and oilseed rape (Brassica napus, BRSNS).
Tables 15 and 16 relate to pre-emergence and PPI tests respectively on warm season species. Table 17 relates to pre-emergence tests on cool season species.

POLCO (wild buckwheat) = experiment: Pre-plant incorporated (PPI) herbicidal activity, cool season; assay type: in vivo, Polygonum convolvulus; details: for inhibition at 30 g/ha / inhibition at 100 g/ha / inhibition at 300 g/ha / inhibition at 900 g/ha: Fallopia convolvulus, read-out: Percent inhibition POLCO; for inhibition at 30 g/ha / inhibition at 100 g/ha / inhibition at 300 g/ha / inhibition at 900 g/ha / Percent inhibition POLCO: weed, PPI application; for PPI activity GR80, POLCO: pre-plant incorporated, lowest tested rate with 80% or greater inhibition, about 14 days
Procedure: as §1, §2, §3

SMILES | inhibition at 30 g/ha (SETVI (green foxtail); 30 g/ha) [%] | inhibition at 100 g/ha (SETVI (green foxtail); 100 g/ha) [%] | inhibition at 300 g/ha (SETVI (green foxtail); 300 g/ha) [%] | inhibition at 900 g/ha (SETVI (green foxtail); 900 g/ha) [%] | PPI activity GR80, SETVI (SETVI (green foxtail)) [g/ha] | Pre-emergence activity (GR80) SORHA [1] [g/ha] | Post-emergence activity GR80, ALOMY (ALOMY (blackgrass)) | Pre-emergence activity (GR80) DIGSA (DIGSA (large crabgrass)) [g/ha] | inhibition at 10 g/ha (rice (ORYSA); 10 g/ha) [%] | inhibition at 30 g/ha (rice (ORYSA); 30 g/ha) [%] | inhibition at 100 g/ha (rice (ORYSA); 100 g/ha) [%] | inhibition at 300 g/ha (rice (ORYSA); 300 g/ha) [%] | inhibition at 900 g/ha (rice (ORYSA); 900 g/ha) [%] | PPI activity GR80, POLCO (POLCO (wild buckwheat)) | Percent inhibition SETVI (SETVI (green foxtail); 30 g/ha) [%] | Percent inhibition SETVI (SETVI (green foxtail); 100 g/ha) [%] | Percent inhibition SETVI (SETVI (green foxtail); 300 g/ha) [%] | Percent inhibition SETVI (SETVI (green foxtail); 900 g/ha) [%] | Percent inhibition ORYSA (rice (ORYSA); 30 g/ha) [%] | Percent inhibition ORYSA (rice (ORYSA); 100 g/ha) [%] | further results
CCN(CC)C(=O)n1cnc(S(=O)(=O)C(F)(F)Br)n1 [Example 1, 3-(bromodifluoromethylsulfonyl)-1-(N,N-diethylcarbamoyl)-1,2,4-triazole] | 80 | 99 | 100 | 100 | 100 | 30 | [empty] | 30 | 0 | 0 | 40 | 60 | 90 | * (activity observed, at least at highest rate, but <80% inhibition) |  |  |  |  |  |  | inhibition at 10 g/ha ([1]; Sorghum halepense, pre-emergence application, 10 g/ha, read-out: Percent inhibition, weed SORHA): 0%; inhibition at 30 g/ha ([1]; Sorghum halepense, pre-emergence application, 30 g/ha, read-out: Percent inhibition, weed SORHA): 0%; inhibition at 100 g/ha ([1]; Sorghum halepense, pre-emergence application, 100 g/ha, read-out: Percent inhibition, weed SORHA): 50%; inhibition at 300 g/ha ([1]; Sorghum halepense, pre-emergence application, 300 g/ha, read-out: Percent inhibition, weed SORHA): 70%; inhibition at 900 g/ha ([1]; Sorghum halepense, pre-emergence application, 900 g/ha, read-out: Percent inhibition, weed SORHA): 99%; inhibition at 10 g/ha (DIGSA (large crabgrass); Digitaria sanguinalis, pre-emergence application, 10 g/ha, read-out: Percent inhibition, weed DIGSA): 0%; inhibition at 30 g/ha (DIGSA (large crabgrass); Digitaria sanguinalis, pre-emergence application, 30 g/ha, read-out: Percent inhibition, weed DIGSA): 60%; inhibition at 100 g/ha (DIGSA (large crabgrass); Digitaria sanguinalis, pre-emergence application, 100 g/ha, read-out: Percent inhibition, weed DIGSA): 100%; inhibition at 300 g/ha (DIGSA (large crabgrass); Digitaria sanguinalis, pre-emergence application, 300 g/ha, read-out: Percent inhibition, weed DIGSA): 100%; inhibition at 900 g/ha (DIGSA (large crabgrass); Digitaria sanguinalis, pre-emergence application, 900 g/ha, read-out: Percent inhibition, weed DIGSA): 100%; inhibition at 30 g/ha (POLCO (wild buckwheat); 30 g/ha): 30%; inhibition at 100 g/ha (POLCO (wild buckwheat); 100 g/ha): 90%; inhibition at 300 g/ha (POLCO (wild buckwheat); 300 g/ha): 100%; inhibition at 900 g/ha (POLCO (wild buckwheat); 900 g/ha): 100%
CCSC(F)(F)S(=O)(=O)c1ncn(C(=O)N(CC)CC)n1 [Example 8, 1-(N,N-diethylcarbamoyl)-3-[difluoro(ethylthio)methylsulfonyl]-1,2,4-triazole] | 100 | 100 | 100 | 100 | 30 | 100 | [empty] | 100 |  | 0 | 40 | 50 | 70 | 300 g/ha |  |  |  |  |  |  | inhibition at 30 g/ha (POLCO (wild buckwheat); 30 g/ha): 0%; inhibition at 100 g/ha (POLCO (wild buckwheat); 100 g/ha): 0%; inhibition at 300 g/ha (POLCO (wild buckwheat); 300 g/ha): 85%; inhibition at 900 g/ha (POLCO (wild buckwheat); 900 g/ha): 100%
CCN(CC)C(=O)n1cnc(S(=O)(=O)C(F)(F)SC)n1 [Example 9] |  |  |  |  |  | 100 | [empty] | 100 |  |  |  |  |  |  | 99 | 100 | 100 | 100 | 0 | 0 | Percent inhibition ORYSA (rice (ORYSA); 300 g/ha): 70%; Percent inhibition ORYSA (rice (ORYSA); 900 g/ha): 95%; Percent inhibition POLCO (POLCO (wild buckwheat); 30 g/ha): 0%; Percent inhibition POLCO (POLCO (wild buckwheat); 100 g/ha): 0%; Percent inhibition POLCO (POLCO (wild buckwheat); 300 g/ha): 95%; Percent inhibition POLCO (POLCO (wild buckwheat); 900 g/ha): 100%
C=C(Br)CC(F)(F)S(=O)(=O)c1ncn(C(=O)N(CC)CC)n1 [Example 19] | 60 | 100 | 100 | 100 | 30 | 100 | [empty] | 100 | 0 | 0 | 0 |  | 20 | * (activity observed, at least at highest rate, but <80% inhibition) |  |  |  |  |  |  | inhibition at 10 g/ha (SETVI (green foxtail); 10 g/ha): 50%
C=CCC(F)(F)S(=O)(=O)c1ncn(C(=O)N(CC)CC)n1 [Example 17, 1-(N,N-diethylcarbamoyl)-3-[(1,1-difluoro-3-butenyl)sulfonyl]-1,2,4-triazole] | 70 | 70 | 100 | 100 | 30 | 100 | [empty] | 100 | 0 | 0 | 0 | 30 | 60 | 100 g/ha |  |  |  |  |  |  | inhibition at 10 g/ha (SETVI (green foxtail); 10 g/ha): 40%
CCN(CC)C(=O)n1cnc(S(=O)(=O)C(F)(F)SCc2ccccc2)n1 [Example 10] |  |  |  |  |  | 100 | [empty] | 100 |  |  |  |  |  |  | 0 | 90 | 100 | 100 | 0 | 0 | Percent inhibition ORYSA (rice (ORYSA); 10 g/ha): 0%; Percent inhibition ORYSA (rice (ORYSA); 300 g/ha): 30%; Percent inhibition ORYSA (rice (ORYSA); 900 g/ha): 0%; Percent inhibition POLCO (POLCO (wild buckwheat); 10 g/ha): 0%; Percent inhibition POLCO (POLCO (wild buckwheat); 30 g/ha): 0%; Percent inhibition POLCO (POLCO (wild buckwheat); 100 g/ha): 60%; Percent inhibition POLCO (POLCO (wild buckwheat); 300 g/ha): 80%; Percent inhibition POLCO (POLCO (wild buckwheat); 900 g/ha): 95%
C=C(C)CC(F)(F)S(=O)(=O)c1ncn(C(=O)N(CC)CC)n1 [Example 18] | 100 | 100 | 60 | 100 | 30 | 100 | [empty] | 100 | 0 | 0 | 0 | 15 | 10 | 100 g/ha |  |  |  |  |  |  | inhibition at 10 g/ha (SETVI (green foxtail); 10 g/ha): 100%
C=C(CC(F)(F)S(=O)(=O)c1ncn(C(=O)N(CC)CC)n1)C[Si](C)(C)C [Example 20] |  |  |  |  | 30 | 300 | [empty] | 100 |  |  |  |  |  | * (activity observed, at least at highest rate, but <80% inhibition) | 70 | 40 | 100 | 100 | 0 | 0 | Percent inhibition SETVI (SETVI (green foxtail); 10 g/ha): 0%; Percent inhibition ORYSA (rice (ORYSA); 10 g/ha): 0%; Percent inhibition ORYSA (rice (ORYSA); 300 g/ha): 10%; Percent inhibition ORYSA (rice (ORYSA); 900 g/ha): 40%
